In patent US6034053A, “EGF-isoflavone conjugates for the prevention of restenosis” (Wayne Hughes Institute, priority 1998, dated 2000):

Test system: vascular injury-induced neointimal hyperplasia
Assay: Murine restenosis model: photoactivated rose bengal vascular injury of the femoral artery, histomorphometric analysis
Assay type: in vivo, C57B1/6 mice
Details: for Stenosis Index (Mean ± SE), neointima/media ratio in areas of maximum neointimal hyperplasia, 4 weeks: 4 weeks after injury, i.p., EGF-Gen 0.1 mg/kg/dose twice daily for 28 days, Gen or quinazolines 2 mg/kg/dose once per day in 10% DMSO
Procedure: Three to four week old C57 B1/6 male mice (Taconic, Germantown, N.Y.) were housed in micro-isolator cages on a 12-hour day/night cycle and kept for 2 weeks on the Paigen's cocoa butter diet of 15.8% fat, 1.25% cholesterol and 0.5% sodium cholate (Harlan Teklad, Madison, Wis., U.S.A.) to induce high plasma cholesterol levels similar to those of patients with lipid disorders.
Mice were injected with 300 microliters of a 3 mg/ml photoactivated rose bengal solution (Aldrich, Milwaukee, Wis.) in sterile PBS via the tail vein and anesthetized with ketamine/xylazine solution (100 mg ketamine/kg and 5 […]). Photoactivation of rose bengal using percutaneous irradiation with a green light source (300 Watt Xenon arced lamp equipped with a 550 nanometer broad band interference filter, Oriel Scientific, Stratford, Conn.) was performed on the shaved left leg by placing a 3.2 mm glass fiber optic light guide directly into the left femoral vein/artery for 10 minutes. The unirradiated right femoral artery served as an internal control.
Following irradiation the mice were treated for either 14 days or 28 days with intraperitoneal injections of (1) EGF-Gen conjugate or unconjugated EGF (modified EGF not conjugated to genistein) at a dose level of 0. I mg/kg/dose once in the morning and once in the evening; or (2) 2 mg/kg/dose of unconjugated genistein or derivatives of 6,7-dimethoxyquinizalone dissolved in 10% DMSO once per day; or (3) with PBS.
At the times indicated, the animals were euthanized with ketamine/xylazine and perfused with PBS followed by 4% phosphate buffered formalin. PBS and formalin were pumped through the left ventricle of the heart and allowed to exit through a 3 mm incision through the interior wall of the right ventricle. […] Serial sections were examined for areas of maximum neointimal hyperplasia for which the ratios of neointima/media (stenosis index) were determined. […]
All numeric data are shown as mean±SEM. […] Cumulative percentage plots were analyzed using Wilcoxon statistics by Statview, Abacus Concepts, Inc., Berkeley, Calif. […]

O=c1c(-c2ccc(O)cc2)coc2cc(O)cc(O)c12 [Gen, 5,7,4'-trihydroxyisoflavone, reference compound]
Stenosis Index (Mean ± SE), neointima/media ratio in areas of maximum neointimal hyperplasia, 4 weeks: 1.03 ± 0.18
Stenosis Index (Mean ± SE), neointima/media ratio in areas of maximum neointimal hyperplasia, 4 weeks (listed as unconjugated Gen): 1.03±0.18
Effect on neointimal hyperplasia / neointima formation (in words) (injured femoral arteries, EGF-Gen at less than 5% of the highest nontoxic dose): ineffective
